Article PMC3315515, “Identification of Novel Mt-Guab2 Inhibitor Series Active against M. tuberculosis” (PLoS ONE, 2012)
≈ marks a conversion by molar mass, not a printed value. Where “and” joins values, the source holds several entries; their conditions need not be identical. Identical values can stand only once. Entries after “also recorded” stand apart in the source; their conditions may differ. Like-named read-outs stand apart in the source and are kept apart here.

Key:
[1] = test system: M. tuberculosis H37Rv; details: cited from earlier work
[2] = test system: M. smegmatis mc^2 155; test: microbe, parasite or virus in culture; type: cell-based; details: for M. smeg MIC90: Table 2, highest concentration tested 128 µg/ml
[3] = target: Mt-GuaB2 (Mycobacterium tuberculosis, UniProt P9WKI7); test: Mt-GuaB2 spectrophotometric assay (NADH formation at 340 nm), inhibitor kinetics; type: biochemical
Chain of Mt-GuaB2 (P9WKI7 whole entry, looked up): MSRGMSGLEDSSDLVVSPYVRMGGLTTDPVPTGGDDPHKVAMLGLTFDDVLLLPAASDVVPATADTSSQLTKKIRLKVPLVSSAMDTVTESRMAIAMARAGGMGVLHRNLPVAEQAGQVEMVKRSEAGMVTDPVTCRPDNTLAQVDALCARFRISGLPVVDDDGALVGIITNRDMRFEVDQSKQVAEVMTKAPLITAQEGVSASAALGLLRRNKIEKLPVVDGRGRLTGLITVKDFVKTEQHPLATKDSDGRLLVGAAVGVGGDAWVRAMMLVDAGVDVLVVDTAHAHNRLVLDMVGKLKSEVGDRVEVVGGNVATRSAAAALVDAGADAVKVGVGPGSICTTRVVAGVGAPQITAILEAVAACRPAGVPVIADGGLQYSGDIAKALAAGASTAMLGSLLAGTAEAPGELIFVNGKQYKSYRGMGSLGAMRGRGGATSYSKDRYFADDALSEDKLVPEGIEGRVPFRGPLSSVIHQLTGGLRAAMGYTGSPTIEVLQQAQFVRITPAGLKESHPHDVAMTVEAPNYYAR

[4] = test system: M. tuberculosis Erdman strain; details: for Log 10 Protection, lung / Log 10 Protection, spleen: versus untreated controls d24, INH 25, 7759844 300 mg/kg/day
[5] = test system: S. pyogenes IMPDH; details: ref [29], [34]; cited from earlier work
[6] = test system: M. smegmatis overexpressing Mt-GuaB2; test: microbe, parasite or virus in culture; type: cell-based
[7] = test system: M. smegmatis pVV16; test: MIC of M. smegmatis with empty pVV16 vector control; type: cell-based; details: Mycolicibacterium smegmatis, Figure 4, vector alone control
[8] = acute maximum tolerated dose (MTD) test; details: single dose 100, 300, 500 mg/kg by gavage in 0.5% methyl cellulose, seven days observation, C57BL/6 mice
[9] = test system: M. smegmatis; test: bactericidal activity against M. smegmatis (colony counts after 24 hours exposure); type: cell-based; details: Mycolicibacterium smegmatis, at least 99% reduction of viable counts, read-out: minimum bactericidal concentration (MBC)
[10] = test system: NC(=O)c1ccc[n+]([C@@H]2O[C@H](COP(=O)([O-])OP(=O)(O)OC[C@H]3O[C@@H](n4cnc5c(N)ncnc54)[C@H](O)[C@@H]3O)[C@@H](O)[C@H]2O)c1; test: purified protein, by the assay type; details: other: variable substrate, fixed saturating co-substrate, 200 µl assay; pH 8.5; 37.0 °C
[11] = Table 2, Life Chemicals set, values without footnote a, previous screens ref [35]–[37]
[12] = Table 2, varied IMP, fixed saturating NAD+ 2.8 mM
[13] = Table 2, values with footnote a, ref Reynolds et al., 2011

Row | Compound | M. tb MIC90 [1, 11] [µg/mL] | M. smeg MIC90 ([2]; TSB agar, 37°C, 3 days) [µg/mL] | IMP αK i [3, 12] [µM] | other results
1 | O=C(Nc1nnc(-c2ccccc2Cl)o1)c1nc2ccccc2s1 [F1374-0033] | 1.75 | 8 | 60.9 | –
2 | COc1cc2ccccc2cc1C(=O)Nc1nnc(-c2ccc(F)cc2)o1 [F1374-0205] | 5.59 | >128 | 35.3 | –
3 | COc1ccccc1-c1nnc(NC(=O)c2sc3ccccc3c2Cl)o1 [F1374-0253] | 5.30 | >128 | 11.2 | pattern of inhibition with respect to IMP [3]: uncompetitive inhibition; pattern of inhibition with respect to NAD+ [3]: noncompetitive inhibition; pattern of inhibition with respect to NAD ([3]; Table 2): NC ((NC) Noncompetitive); Ki ([3]; Table 2, varied NAD+, fixed saturating IMP […], read-out: NAD K i): 435 µM
4 | O=C(Nc1nnc(-c2ccccc2)o1)c1cc(-c2cccs2)nc2ccccc12 [F1374-0885] | 0.72 | 2 | 19.0 | –
5 | O=C(Nc1nnc(-c2cccs2)o1)c1nc2ccccc2s1 [F1374-0978] | – | >128 | 28.3 | M. tb MIC90 [1, 13]: 2.98 ^a µg/ml
6 | O=C(Nc1nnc(-c2ccc(Cl)s2)o1)c1nc2ccccc2s1 [F1374-1083] | 4.81 | >128 | 4.86 | –
7 | CC(C)c1ccc(OCC(=O)Nc2nccs2)cc1 [F1685-0077] | 6.88 | >128 | 229.3 | –
8 | CCOc1cc(-c2nnc(NC(=O)c3cc4ccccc4cc3OC)o2)cc(OCC)c1OCC [F2517-0198] | 2.68 | >128 | 19.1 | –
9 | Cc1ccc(-c2nnc(NC(=O)c3nc4ccccc4s3)o2)c(C)c1 [F2518-0183] | – | >128 | 57.1 | M. tb MIC90 [1, 13]: 1.76 ^a µg/ml
10 | Cc1ccc(-c2nnc(NC(=O)COc3ccccc3)o2)c(C)c1 [F2518-0274] | 5.50 | 20 | 765.4 | –
11 | Cc1ccc(C)c(-c2nnc(NC(=O)c3cccc4ccccc34)o2)c1 [F2518-0386] | – | – | 22.6 | M. tb MIC90 [1, 13]: 0.41 µg/ml and 0.41 ^a µg/ml
12 | Cc1ccc(C)c(-c2nnc(NC(=O)C3COc4ccccc4O3)o2)c1 (centres unmarked) [F2518-0401] | 1.18 | 16 | 501.9 | –
13 | COc1cc2ccccc2cc1C(=O)Nc1nnc(-c2cc(C)ccc2C)o1 [F2518-0413] | 1.23 | >128 | 36.4 | –
14 | Cc1ccc(C)c(-c2nnc(NC(=O)COc3ccccc3)o2)c1 [F2518-0418] | 2.24 | 32 | 328.7 | –
15 | O=C(Nc1nnc(-c2ccc(Br)cc2)o1)c1sc2ccccc2c1Cl [F2518-0484] | 6.70 | 3 | 35.5 | –
16 | O=C(CS(=O)(=O)c1ccccc1)Nc1nc(-c2ccc3c(c2)CCCC3)cs1 [F2536-1573] | 1.02 | >128 | 79.0 | –
17 | NNC(=O)c1ccncc1 [Isoniazid, isoniazid, reference compound] | – | – | – | Log 10 Protection, lung ([4]; 300 mg/kg/day): 2.7 log10 protection units; Log 10 Protection, lung ([4]; listed as INH, 300 mg/kg/day): 2.70 log10 protection units; Log 10 Protection, spleen ([4]; spleen, 300 mg/kg/day): 4.0 log10 protection units; Log 10 Protection, spleen ([4]; spleen, listed as INH, 300 mg/kg/day): 4.04 log10 protection units
18 | NC(=O)c1ccc[n+]([C@@H]2O[C@H](COP(=O)([O-])OP(=O)(O)OC[C@H]3O[C@@H](n4cnc5c(N)ncnc54)[C@H](O)[C@@H]3O)[C@@H](O)[C@H]2O)c1 [NAD^+, nicotinamide adenine dinucleotide] | – | – | – | Km [5]: ~1180 µM
19 | COc1ccc(OC(C)C(=O)Nc2ccc(I)cc2)cc1 (centres unmarked) [compound 7759844] | – | – | – | MIC99 ([6]; Mycolicibacterium smegmatis, Figure 4, Mt-GuaB2 overexpression construct in pVV16): 48 µg/mL (≈ 121 µM); increase in MIC of Mt-GuaB2 overexpressing strain ([6]; compared with pVV16 vector control and wild type M. smegmatis): 6 fold; MIC99 [7]: 8 µg/mL; M. tb MIC90 ([1]; Table 1, Chembridge compounds, M. tuberculosis H37Rv, previous screens ref [35]–[37]): 0.63 µg/mL; M. tb MIC90 ([1]; Table 3, analogs of lead scaffold, previous screens ref [35]–[37]): 0.633 µg/mL; MIC90 ([2]; Mycolicibacterium smegmatis, MC^2155, 72 h, Table 1, TSB agar, 37°C, 3 days, read-out: M. smeg MIC90): 8 µg/mL (≈ 20.1 µM); MIC99 ([2]; Mycolicibacterium smegmatis, MC^2155, Figure 4, M. smegmatis mc^2 155): 8 µg/mL (≈ 20.1 µM); tolerability, acute single dose [8]: no dose related adverse effects; also recorded: well tolerated with no acute adverse effects; also recorded: not toxic; MBC [9]: 32 µg/mL (≈ 80.6 µM); Log 10 Protection, spleen ([4]; spleen): 0.84 log10 protection units; Activity ([4]; spleen, 300 mg/kg/day): slightly active; IMP αK i ([3]; Table 1, varied IMP, fixed saturating NAD+ 2.8 mM): 0.603 µM; IMP αK i ([3]; Table 3, analogs of lead scaffold): 0.603 µM; K i values ([3]; with respect to both substrates IMP and NAD+): nanomolar range
20 | Mt-GuaB2 (Mycobacterium tuberculosis H37Rv) | – | – | – | Km [10]: 699.4 ± 63.70 µM
